# Measured values reported in ChEMBL document CHEMBL1201862, “PubChem BioAssay data set” (2004).
#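 Following 48 hours of exposure in 96-well plates, responses at five concentrations were used to interpolate endpoints linearly. GI50 = concentration required for 50% inhibition of growth.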 Calls of active or inactive are those of the source. Cut-off read from the data, not from the text of the source: active = GI50 up to about 1.1 µM and inactive = higher.
# Experiments:
# Experiment in all cases: NCI tumour cell line growth inhibition, 48 h
# HOP-62 = test system: HOP-62
# ACHN = test system: ACHN
# HCC 2998 = test system: HCC 2998
# UACC-257 = test system: UACC-257
# HT-29 = test system: HT-29
# OVCAR-5 = test system: OVCAR-5
# SF-268 = test system: SF-268
# OVCAR-8 = test system: OVCAR-8
# CAKI-1 = test system: CAKI-1
# SN12C = test system: SN12C
# CCRF-CEM = test system: CCRF-CEM
# M19-MEL = test system: M19-MEL
# HL-60 = test system: HL-60
# K562 = test system: K562
# SF-295 = test system: SF-295
# SK-MEL-2 = test system: SK-MEL-2
# NCI/ADR-RES = test system: NCI/ADR-RES
# RXF 393 = test system: RXF 393
# HOP-92 = test system: HOP-92
# TK-10 = test system: TK-10
Compound,GI50 (HOP-62),GI50 (ACHN),GI50 (HCC 2998),GI50 (UACC-257),GI50 (HT-29),GI50 (OVCAR-5),GI50 (SF-268),GI50 (OVCAR-8),GI50 (CAKI-1),GI50 (SN12C),GI50 (CCRF-CEM),GI50 (M19-MEL),GI50 (HL-60),GI50 (K562),GI50 (SF-295),GI50 (SK-MEL-2),GI50 (NCI/ADR-RES),GI50 (RXF 393),GI50 (HOP-92),GI50 (TK-10)
CN1CN(C(=O)N2CN(C)C(=O)N(C)C2)CN(C)C1=O,> 100 µM (inactive),> 100 µM (inactive),> 100 µM (inactive),> 100 µM (inactive),> 100 µM (inactive),> 100 µM (inactive),> 100 µM (inactive),> 100 µM (inactive),> 100 µM (inactive),> 100 µM (inactive),> 100 µM (inactive),> 100 µM (inactive),> 100 µM (inactive),> 100 µM (inactive),> 100 µM (inactive),> 100 µM (inactive),,,,
CC(=O)OC1CC[C@@]2(C)C(=CC[C@@H]3[C@@H]2CC[C@]2(C)Nc4nn(S(C)(=O)=O)cc4C[C@@H]32)C1 (stereo not given in full),43.9 µM (inactive),,30.4 µM (inactive),,11.6 µM (inactive),37.9 µM (inactive),,32.5 µM (inactive),40.1 µM (inactive),59.7 µM (inactive),10.6 µM (inactive),,> 10 µM (inactive),12.1 µM (inactive),34 µM (inactive),22.3 µM (inactive),29.9 µM (inactive),18.6 µM (inactive),49.5 µM (inactive),
COC(=O)C1=C(O)C(C(=O)OC)[C@@]2(O)[C@@H](C(=O)OC)[C@H](C)[C@@H](C)[C@@H]1[C@@H]2C(=O)OC (stereo not given in full),89.5 µM (inactive),> 100 µM (inactive),37.8 µM (inactive),46.6 µM (inactive),55.7 µM (inactive),> 100 µM (inactive),> 100 µM (inactive),,,> 100 µM (inactive),60.5 µM (inactive),,45.7 µM (inactive),35.6 µM (inactive),,48.5 µM (inactive),,13.2 µM (inactive),,> 100 µM (inactive)
CCOC(=O)C1=NN(c2ccccc2)C2=CC(C)=NN(C)C(=S)N21,,> 100 µM (inactive),> 100 µM (inactive),> 100 µM (inactive),> 100 µM (inactive),> 100 µM (inactive),> 100 µM (inactive),> 100 µM (inactive),> 100 µM (inactive),> 100 µM (inactive),> 100 µM (inactive),,> 100 µM (inactive),> 100 µM (inactive),> 100 µM (inactive),> 100 µM (inactive),> 100 µM (inactive),> 100 µM (inactive),> 100 µM (inactive),> 100 µM (inactive)
O=C(/N=N/c1cc(Cl)ccc1Cl)NNc1cc(Cl)ccc1Cl,17.3 µM (inactive),,25.9 µM (inactive),,17.5 µM (inactive),17.6 µM (inactive),,26.8 µM (inactive),16 µM (inactive),21.4 µM (inactive),13.6 µM (inactive),,4.41 µM (inactive),14.6 µM (inactive),22.8 µM (inactive),20 µM (inactive),22 µM (inactive),11.1 µM (inactive),15.2 µM (inactive),
Cc1ccc(C(=O)N/N=C(\N=N\c2cccc(C)c2)c2ccc(N(CCC#N)CCC#N)cc2C)cc1,> 100 µM (inactive),> 100 µM (inactive),> 100 µM (inactive),58.9 µM (inactive),34.4 µM (inactive),> 100 µM (inactive),59.6 µM (inactive),43.3 µM (inactive),> 100 µM (inactive),,59.8 µM (inactive),,> 100 µM (inactive),> 100 µM (inactive),> 100 µM (inactive),49.3 µM (inactive),> 100 µM (inactive),89.1 µM (inactive),34 µM (inactive),> 100 µM (inactive)
Cc1cc(O)nc(NN2C(Cl)C(=O)C2c2c(O)ccc3ccccc23)n1 (stereo not given),15.1 µM (inactive),20.7 µM (inactive),15 µM (inactive),31.2 µM (inactive),25 µM (inactive),36.9 µM (inactive),23.1 µM (inactive),27.4 µM (inactive),,21.7 µM (inactive),6.76 µM (inactive),39.6 µM (inactive),14.1 µM (inactive),23.2 µM (inactive),,15.2 µM (inactive),,13.2 µM (inactive),16.4 µM (inactive),37.2 µM (inactive)
COc1ccc(C(=O)Cc2cc(OC)ccc2OC)cc1,66.1 µM (inactive),> 100 µM (inactive),> 100 µM (inactive),> 100 µM (inactive),> 100 µM (inactive),> 100 µM (inactive),61.4 µM (inactive),> 100 µM (inactive),> 100 µM (inactive),> 100 µM (inactive),> 100 µM (inactive),> 100 µM (inactive),> 100 µM (inactive),> 100 µM (inactive),48.9 µM (inactive),> 100 µM (inactive),,58.9 µM (inactive),,> 100 µM (inactive)
CC(=O)NNc1nc(C)c(C(=O)NNC(=O)C(=O)Nc2c(C)cccc2C(C)(C)C)s1,> 100 µM (inactive),59.4 µM (inactive),25.6 µM (inactive),> 100 µM (inactive),64 µM (inactive),> 100 µM (inactive),> 100 µM (inactive),> 100 µM (inactive),49.5 µM (inactive),44.2 µM (inactive),16.2 µM (inactive),48 µM (inactive),33.3 µM (inactive),31.3 µM (inactive),> 100 µM (inactive),> 100 µM (inactive),,> 100 µM (inactive),> 100 µM (inactive),> 100 µM (inactive)
C=C1CN=C(Nc2ccc(Cl)cc2)S1,> 100 µM (inactive),> 100 µM (inactive),> 100 µM (inactive),> 100 µM (inactive),> 100 µM (inactive),> 100 µM (inactive),> 100 µM (inactive),> 100 µM (inactive),> 10 µM (inactive),> 100 µM (inactive),71 µM (inactive),,> 10 µM (inactive),96.8 µM (inactive),> 100 µM (inactive),> 100 µM (inactive),> 100 µM (inactive),,28.2 µM (inactive),> 100 µM (inactive)
O=C(O)C(CO)NC(=O)C1C(C(=O)O)C(c2ccccc2[N+](=O)[O-])C=C(c2ccco2)N1c1ccncc1 (stereo not given),12.2 µM (inactive),1.91 µM (inactive),4.91 µM (inactive),3.61 µM (inactive),1.81 µM (inactive),11.7 µM (inactive),12.6 µM (inactive),5.53 µM (inactive),8.85 µM (inactive),4.62 µM (inactive),2.19 µM (inactive),,2.97 µM (inactive),1.99 µM (inactive),7.05 µM (inactive),16.3 µM (inactive),9.23 µM (inactive),1.64 µM (inactive),12.1 µM (inactive),2.9 µM (inactive)
COCC(=O)[C@]1(O)Cc2c(O)c3c(c(O)c2[C@@H](OC2CC(N)C(O)C(C)O2)C1)C(=O)c1c(OC)cccc1C3=O (stereo not given in full),0.11 µM (active),0.0703 µM (active),0.14 µM (active),0.299 µM (active),0.0192 µM (active),0.22 µM (active),0.0351 µM (active),< 0.0172 µM (active),0.0628 µM (active),0.0285 µM (active),0.0153 µM (active),0.0676 µM (active),0.0188 µM (active),0.0124 µM (active),0.0296 µM (active),0.121 µM (active),,0.0834 µM (active),0.13 µM (active),0.431 µM (active)
O=c1c2cccnc2ncn1CCCN1CCCCC1,> 100 µM (inactive),> 100 µM (inactive),,,> 100 µM (inactive),> 100 µM (inactive),> 100 µM (inactive),> 100 µM (inactive),> 100 µM (inactive),> 100 µM (inactive),> 100 µM (inactive),> 100 µM (inactive),,> 100 µM (inactive),> 100 µM (inactive),> 100 µM (inactive),,> 100 µM (inactive),> 100 µM (inactive),> 100 µM (inactive)
Cc1nnc(N)s/c1=N/O,> 100 µM (inactive),> 100 µM (inactive),> 100 µM (inactive),56.9 µM (inactive),> 100 µM (inactive),> 100 µM (inactive),> 100 µM (inactive),> 100 µM (inactive),> 100 µM (inactive),> 100 µM (inactive),> 100 µM (inactive),,> 100 µM (inactive),> 100 µM (inactive),> 100 µM (inactive),> 100 µM (inactive),> 100 µM (inactive),> 100 µM (inactive),> 100 µM (inactive),> 100 µM (inactive)
CCCCCCCCCC[C@@H](O)[C@@H]1CC[C@@H]([C@@H]2CC[C@@H]([C@@H](O)CCCCCCCCCCC(O)CC3=CC(C)OC3=O)O2)O1 (stereo not given in full),0.655 µM (active),0.931 µM (active),4.84 µM (inactive),2.42 µM (inactive),> 10 µM (inactive),0.128 µM (active),> 10 µM (inactive),4.43 µM (inactive),,> 10 µM (inactive),2.47 µM (inactive),,0.116 µM (active),0.248 µM (active),2.72 µM (inactive),,0.729 µM (active),2.69 µM (inactive),,> 10 µM (inactive)
CC(C(=O)OCc1ccccc1)N(Cc1ccccc1)Cc1ccccc1 (stereo not given),> 100 µM (inactive),87.3 µM (inactive),> 100 µM (inactive),33.7 µM (inactive),46.8 µM (inactive),> 100 µM (inactive),> 100 µM (inactive),> 100 µM (inactive),> 100 µM (inactive),> 100 µM (inactive),53.5 µM (inactive),,21 µM (inactive),77.8 µM (inactive),> 100 µM (inactive),29.6 µM (inactive),,23.1 µM (inactive),> 100 µM (inactive),> 100 µM (inactive)
